The text below walks through data of paper PMC6155628 (Molecules : A Journal of Synthetic Chemistry and Natural …, 2017).

For one experiment, the system named is ACE. Particulars: read-out: IC50 (ACE inhibition), cited from earlier work.
The subject of another experiment is SHR. Conditions: cited from earlier work.
Experiment [1] relates to spontaneously hypertensive rats (SHR). Particulars: oral, dose not given, 4 h after administration, tail-cuff, n = 6.
Experiment [2] relates to Ehrlich ascites sarcoma cells. Particulars: Ehrlich ascites sarcoma cells in mice; cited from earlier work. From the text:
Adlay seed (soft-shelled Job’s tears, Coix larchryma-jobi L. var. ma-yuen Stapf) has been used in traditional Chinese medicine and has been a nourishing food for more than a thousand years. It has been used to treat warts, chapped skin, rheumatism, neuralgia, hypertension as well as being an anti-inflammatory and anticancer agent. An increasing effort had been concentrated on finding active components from adlay. […] The main ingredient of ...

Experiment [3] deals with Angiotensin converting enzyme (ACE) (Homo sapiens, UniProt P12821). As to the kind of experiment: biochemical.
Setting [4] is: from haruan myofibrillar protein hydrolysate (proteinase K and thermolysin).

pIC50: −log10 of the molar value. Where two headings read alike, the source gives them in different places. Residues, ends and D or L forms follow the SMILES beside them.

A word on the pIC50: it is the negative decadic logarithm of the IC50, by convention in mol/L.

Sequence of Angiotensin converting enzyme (ACE) (P12821 30-1306, species assumed): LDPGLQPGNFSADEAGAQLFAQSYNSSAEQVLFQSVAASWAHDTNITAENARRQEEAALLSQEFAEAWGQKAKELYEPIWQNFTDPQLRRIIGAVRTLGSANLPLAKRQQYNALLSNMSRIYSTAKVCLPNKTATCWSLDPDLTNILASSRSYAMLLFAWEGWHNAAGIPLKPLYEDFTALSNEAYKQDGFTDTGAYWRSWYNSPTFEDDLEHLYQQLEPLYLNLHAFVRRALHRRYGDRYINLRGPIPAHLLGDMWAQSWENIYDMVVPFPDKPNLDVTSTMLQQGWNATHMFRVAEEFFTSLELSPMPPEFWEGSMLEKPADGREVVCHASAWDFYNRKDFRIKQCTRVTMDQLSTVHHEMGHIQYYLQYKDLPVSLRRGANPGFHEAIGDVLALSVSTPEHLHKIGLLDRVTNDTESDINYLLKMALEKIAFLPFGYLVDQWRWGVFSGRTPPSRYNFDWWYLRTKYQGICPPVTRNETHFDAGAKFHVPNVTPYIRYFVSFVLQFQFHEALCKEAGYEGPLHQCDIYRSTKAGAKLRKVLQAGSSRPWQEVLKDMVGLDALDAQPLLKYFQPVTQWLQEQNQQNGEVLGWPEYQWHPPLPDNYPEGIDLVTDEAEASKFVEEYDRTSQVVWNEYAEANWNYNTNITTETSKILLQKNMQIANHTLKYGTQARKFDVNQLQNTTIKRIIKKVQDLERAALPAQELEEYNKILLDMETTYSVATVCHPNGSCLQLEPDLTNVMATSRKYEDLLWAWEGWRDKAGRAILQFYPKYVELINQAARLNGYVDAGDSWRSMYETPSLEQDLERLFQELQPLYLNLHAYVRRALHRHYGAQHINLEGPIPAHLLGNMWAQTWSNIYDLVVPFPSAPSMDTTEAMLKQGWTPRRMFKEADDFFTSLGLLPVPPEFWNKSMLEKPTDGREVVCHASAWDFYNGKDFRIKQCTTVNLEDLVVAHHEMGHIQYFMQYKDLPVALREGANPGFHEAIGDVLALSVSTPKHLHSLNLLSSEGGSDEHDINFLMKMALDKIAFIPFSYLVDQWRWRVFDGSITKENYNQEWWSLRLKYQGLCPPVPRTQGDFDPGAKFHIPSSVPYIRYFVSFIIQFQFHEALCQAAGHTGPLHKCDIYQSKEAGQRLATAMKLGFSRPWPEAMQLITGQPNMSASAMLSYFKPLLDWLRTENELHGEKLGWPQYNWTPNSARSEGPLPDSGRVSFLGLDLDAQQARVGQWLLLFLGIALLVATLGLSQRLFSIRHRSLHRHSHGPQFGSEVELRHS

For the compound VPAAPPK, in the experiment with ACE (setting [4]), the pIC50 was 6.35.

Consider Ala-Tyr, for which the pIC50 with ACE (from corn gluten meal) is 4.85.

AAATP: the “Decrease of SBP” value in the experiment on SHR (SHRs, after 8 h administration, from Spanish dry-cured ham) is on record as “around 25.62 mmHg”.

As for `C[C@H](CS)C(=O)N1CCC[C@H]1C(=O)O` [captopril], the “Maximal decrease of SBP, positive control” value in experiment [1] is “approximately 28.17 mmHg”.

As to NGTWFEPP, in the experiment with ACE (setting [4]), the pIC50 is 6.20.

As to coixenolide [coixenolide (I)], in experiment [2], the Growth-inhibiting activity result is reported as “growth-inhibiting activity”.

Take AWLHPGAPKVF: the Antihypertensive duration with SHR (single oral, 10 mg/kg) is on record as 8 h. Also, the “Reduction of SBP” value with SHR (single oral, 10 mg/kg, from P. esculenta protein hydrolysate) is reported as “around 30 mmHg”.

In experiment [3], `C[C@H](NC(=O)CN)C(=O)N[C@@H](C)C(=O)NCC(=O)NCC(=O)N[C@@H](C)C(=O)N[C@@H](Cc1ccccc1)C(=O)O` [GAAGGAF] (H-GAAGGAF-OH) had a pIC50 of 4.85.
